system: not listed separately; assay: Drug concentration in brain of gerbil foot tap model at 10 mg/kg, po; format: ADME, organism-based; conditions: gerbillinae, in vivo, read-out: Drug uptake

Row | SMILES | concentration
1 | N#Cc1ccc(-c2cc(COCC3(c4ccccc4)CCNCC3)cc(C(F)(F)F)c2)cc1 | 190 nM
2 | CN1CCC(COCc2cc(-c3ccc(C#N)cc3)cc(C(F)(F)F)c2)(c2ccccc2)CC1 | 1300 nM

system: not listed separately; assay: Plasma concentration in gerbil foot tap model at 10 mg/kg, po; format: ADME, organism-based; conditions: gerbillinae, in vivo

Row | SMILES | concentration
3 | N#Cc1ccc(-c2cc(COCC3(c4ccccc4)CCNCC3)cc(C(F)(F)F)c2)cc1 | 365 nM
4 | CN1CCC(COCc2cc(-c3ccc(C#N)cc3)cc(C(F)(F)F)c2)(c2ccccc2)CC1 | 526 nM

system: not listed separately; assay: Displacement of [3H]-citalopram from gerbil SERT expressed in HEK293 cell membranes incubated for 60 mins by liquid scintillation counting method; set-up: species or system Gerbillinae; conditions: not given

Row | SMILES | IC50
5 | FC(F)(F)c1cc(COCC2(c3ccccc3)CCNCC2)cc(-c2cccc3ccccc23)c1 | 120 nM
6 | N#Cc1ccc(-c2cc(COCC3(c4ccccc4)CCN(Cc4ccccc4)CC3)cc(C(F)(F)F)c2)cc1 | 800 nM
7 | CC(C)N1CCC(COCc2cc(-c3ccc(C#N)cc3)cc(C(F)(F)F)c2)(c2ccccc2)CC1 | 450 nM
8 | FC(F)(F)c1cc(COCC2(c3ccccc3)CCNCC2)cc(-c2ccc3c(c2)OCO3)c1 | 45 nM
9 | FC(F)(F)c1ccc(-c2cc(COCC3(c4ccccc4)CCNCC3)cc(C(F)(F)F)c2)cc1 | 36 nM
10 | Cn1nnnc1-c1cc(COCC2(c3ccccc3)CCNCC2)cc(C(F)(F)F)c1 | 50 nM
11 | CCN1CCC(COCc2cc(-c3ccc(C#N)cc3)cc(C(F)(F)F)c2)(c2ccccc2)CC1 | 420 nM
12 | N#Cc1c(F)c(F)c(-c2cc(COCC3(c4ccccc4)CCNCC3)cc(C(F)(F)F)c2)c(F)c1F | 47 nM
13 | FC(F)(F)c1cc(COCC2(c3ccccc3)CCNCC2)cc(-n2nnnc2C(F)(F)F)c1 | 57 nM
14 | Cc1nnnn1-c1cc(COCC2(c3ccccc3)CCNCC2)cc(C(F)(F)F)c1 | 70 nM
15 | CN1CCC(COCc2cc(-c3ccc(C#N)cc3)cc(C(F)(F)F)c2)(c2ccccc2)CC1 | 9.5 nM

Continued by falling IC50, values first:

Row | IC50 | SMILES
16 | 30 nM | Nc1cccc(-c2cc(COCC3(c4ccccc4)CCNCC3)cc(C(F)(F)F)c2)c1
17 | 27 nM | Oc1ccc(-c2cc(COCC3(c4ccccc4)CCNCC3)cc(C(F)(F)F)c2)cc1
18 | 25 nM | COC(=O)c1ccc(-c2cc(COCC3(c4ccccc4)CCNCC3)cc(C(F)(F)F)c2)cc1
19 | 9.6 nM | Cn1nnc(-c2cc(COCC3(c4ccccc4)CCNCC3)cc(C(F)(F)F)c2)n1
20 | 8.9 nM | N#Cc1ccc(-c2cc(COCC3(c4ccccc4)CCNCC3)cc(C(F)(F)F)c2)cc1F
21 | 8.6 nM | FC(F)(F)c1cc(COCC2(c3ccccc3)CCNCC2)cc(-c2nnn[nH]2)c1
22 | 7.6 nM | Fc1ccccc1-c1cc(COCC2(c3ccccc3)CCNCC2)cc(C(F)(F)F)c1
23 | 7.3 nM | O=[N+]([O-])c1ccc(-c2cc(COCC3(c4ccccc4)CCNCC3)cc(C(F)(F)F)c2)cc1
24 | 6.4 nM | FC(F)(F)c1cc(COCC2(c3ccccc3)CCNCC2)cc(-c2ccccc2Cl)c1
25 | 4.2 nM | O=[N+]([O-])c1cccc(-c2cc(COCC3(c4ccccc4)CCNCC3)cc(C(F)(F)F)c2)c1
26 | 4 nM | N#Cc1ccc(-c2cc(COCC3(c4ccccc4)CCNCC3)cc(C(F)(F)F)c2)nc1
27 | 4 nM | N#Cc1ccc(-c2cc(COCC3(c4ccccc4)CCNCC3)cc(C(F)(F)F)c2)cc1
28 | 3.5 nM | O=[N+]([O-])c1ccccc1-c1cc(COCC2(c3ccccc3)CCNCC2)cc(C(F)(F)F)c1
29 | 3.1 nM | N#Cc1ccc(-c2cc(COCC3(c4ccccc4)CCNCC3)cc(C(F)(F)F)c2)cc1Cl
30 | 2.7 nM | Cc1cc(-c2cc(COCC3(c4ccccc4)CCNCC3)cc(C(F)(F)F)c2)ccc1C#N

system: HEK293; assay: Selectivity index, ratio of IC50 for gerbil SERT expressed in HEK293 cell membranes to IC50 for gerbil NK1 receptor expressed in HEK293 cell membranes; format: cell-based; conditions: Gerbillinae

Row | SMILES | Ratio IC50
31 | FC(F)(F)c1cc(COCC2(c3ccccc3)CCNCC2)cc(-c2cccc3ccccc23)c1 | 0.2
32 | Cn1nnc(-c2cc(COCC3(c4ccccc4)CCNCC3)cc(C(F)(F)F)c2)n1 | 0.3
33 | COC(=O)c1ccc(-c2cc(COCC3(c4ccccc4)CCNCC3)cc(C(F)(F)F)c2)cc1 | 1
34 | O=[N+]([O-])c1cccc(-c2cc(COCC3(c4ccccc4)CCNCC3)cc(C(F)(F)F)c2)c1 | 0.8
35 | N#Cc1ccc(-c2cc(COCC3(c4ccccc4)CCN(Cc4ccccc4)CC3)cc(C(F)(F)F)c2)cc1 | 400
36 | CC(C)N1CCC(COCc2cc(-c3ccc(C#N)cc3)cc(C(F)(F)F)c2)(c2ccccc2)CC1 | 1200
37 | Oc1ccc(-c2cc(COCC3(c4ccccc4)CCNCC3)cc(C(F)(F)F)c2)cc1 | 8
38 | FC(F)(F)c1cc(COCC2(c3ccccc3)CCNCC2)cc(-c2ccc3c(c2)OCO3)c1 | 6
39 | FC(F)(F)c1ccc(-c2cc(COCC3(c4ccccc4)CCNCC3)cc(C(F)(F)F)c2)cc1 | 1
40 | FC(F)(F)c1cc(COCC2(c3ccccc3)CCNCC2)cc(-c2nnn[nH]2)c1 | 0.04
41 | Fc1ccccc1-c1cc(COCC2(c3ccccc3)CCNCC2)cc(C(F)(F)F)c1 | 0.3
42 | Cn1nnnc1-c1cc(COCC2(c3ccccc3)CCNCC2)cc(C(F)(F)F)c1 | 0.8
43 | Nc1cccc(-c2cc(COCC3(c4ccccc4)CCNCC3)cc(C(F)(F)F)c2)c1 | 1
44 | FC(F)(F)c1cc(COCC2(c3ccccc3)CCNCC2)cc(-c2ccccc2Cl)c1 | 0.1
45 | O=[N+]([O-])c1ccccc1-c1cc(COCC2(c3ccccc3)CCNCC2)cc(C(F)(F)F)c1 | 0.5
46 | CCN1CCC(COCc2cc(-c3ccc(C#N)cc3)cc(C(F)(F)F)c2)(c2ccccc2)CC1 | 1700
47 | N#Cc1ccc(-c2cc(COCC3(c4ccccc4)CCNCC3)cc(C(F)(F)F)c2)nc1 | 0.5
48 | N#Cc1c(F)c(F)c(-c2cc(COCC3(c4ccccc4)CCNCC3)cc(C(F)(F)F)c2)c(F)c1F | 10
49 | FC(F)(F)c1cc(COCC2(c3ccccc3)CCNCC2)cc(-n2nnnc2C(F)(F)F)c1 | 0.08
50 | O=[N+]([O-])c1ccc(-c2cc(COCC3(c4ccccc4)CCNCC3)cc(C(F)(F)F)c2)cc1 | 2
51 | N#Cc1ccc(-c2cc(COCC3(c4ccccc4)CCNCC3)cc(C(F)(F)F)c2)cc1F | 8
52 | Cc1nnnn1-c1cc(COCC2(c3ccccc3)CCNCC2)cc(C(F)(F)F)c1 | 0.4
53 | Cc1cc(-c2cc(COCC3(c4ccccc4)CCNCC3)cc(C(F)(F)F)c2)ccc1C#N | 2
54 | N#Cc1ccc(-c2cc(COCC3(c4ccccc4)CCNCC3)cc(C(F)(F)F)c2)cc1Cl | 3
55 | N#Cc1ccc(-c2cc(COCC3(c4ccccc4)CCNCC3)cc(C(F)(F)F)c2)cc1 | 9
56 | CN1CCC(COCc2cc(-c3ccc(C#N)cc3)cc(C(F)(F)F)c2)(c2ccccc2)CC1 | 33

system: Gerbillinae; assay: In-vivo receptor occupancy at SERT in gerbil at 3 to 30 mg/kg, po measured after 4 hrs; format: functional, organism-based; conditions: not given

Row | SMILES | Occ
57 | CN1CCC(COCc2cc(-c3ccc(C#N)cc3)cc(C(F)(F)F)c2)(c2ccccc2)CC1 | Dose-dependent effect

target: Substance-P receptor (Homo sapiens, UniProt P25103); assay: Binding affinity to human NK1 receptor; conditions: not given
Sequence (P25103 whole entry): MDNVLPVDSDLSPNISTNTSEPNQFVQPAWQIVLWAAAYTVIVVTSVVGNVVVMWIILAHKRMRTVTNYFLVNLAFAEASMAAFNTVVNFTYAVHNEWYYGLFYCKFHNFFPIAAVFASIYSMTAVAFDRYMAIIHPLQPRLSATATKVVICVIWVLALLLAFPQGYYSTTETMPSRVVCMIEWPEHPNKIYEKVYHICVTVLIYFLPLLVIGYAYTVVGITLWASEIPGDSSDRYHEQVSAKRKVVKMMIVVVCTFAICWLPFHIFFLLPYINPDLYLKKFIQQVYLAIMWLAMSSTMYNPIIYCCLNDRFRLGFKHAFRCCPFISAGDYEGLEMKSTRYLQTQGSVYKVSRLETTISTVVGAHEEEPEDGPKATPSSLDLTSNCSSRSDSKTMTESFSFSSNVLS

Row | SMILES | IC50
58 | N#Cc1ccc(-c2cc(COCC3(c4ccccc4)CCNCC3)cc(C(F)(F)F)c2)cc1 | 0.59 nM
59 | CN1CCC(COCc2cc(-c3ccc(C#N)cc3)cc(C(F)(F)F)c2)(c2ccccc2)CC1 | 0.2 nM

system: Gerbillinae; assay: In-vivo receptor occupancy at SERT in gerbil at 30 mg/kg, po measured after 4 hrs; format: functional; conditions: not given

Row | SMILES | Occ
60 | CN1CCC(COCc2cc(-c3ccc(C#N)cc3)cc(C(F)(F)F)c2)(c2ccccc2)CC1 | 84%

system: Gerbillinae; assay: In-vivo receptor occupancy at SERT in gerbil at 3 mg/kg, po measured after 4 hrs; format: functional; conditions: not given

Row | SMILES | Occ
61 | CN1CCC(COCc2cc(-c3ccc(C#N)cc3)cc(C(F)(F)F)c2)(c2ccccc2)CC1 | 11%

system: not listed separately; assay: Ratio of drug concentration in brain to plasma of gerbil foot tap model at 10 mg/kg, po; format: ADME, organism-based; conditions: gerbillinae, read-out: BPR

Row | SMILES | Kp
62 | N#Cc1ccc(-c2cc(COCC3(c4ccccc4)CCNCC3)cc(C(F)(F)F)c2)cc1 | 0.52
63 | CN1CCC(COCc2cc(-c3ccc(C#N)cc3)cc(C(F)(F)F)c2)(c2ccccc2)CC1 | 2.5

system: Gerbillinae; assay: Inhibition of foot tapping in gerbil foot tap model at 10 mg/kg, po and treated with 3 pmol, icv GR-73632 and measured for 5 mins after animal regains righting reflex; format: functional; conditions: not given

Row | SMILES | inhibition in vivo at 10 mg/kg
64 | N#Cc1ccc(-c2cc(COCC3(c4ccccc4)CCNCC3)cc(C(F)(F)F)c2)cc1 | 29%
65 | CN1CCC(COCc2cc(-c3ccc(C#N)cc3)cc(C(F)(F)F)c2)(c2ccccc2)CC1 | 73%

system: Gerbillinae; assay: In-vivo receptor occupancy at NK1 receptor in gerbil at 3 to 30 mg/kg, po measured after 4 hrs; format: functional; conditions: not given

Row | SMILES | Occ
66 | CN1CCC(COCc2cc(-c3ccc(C#N)cc3)cc(C(F)(F)F)c2)(c2ccccc2)CC1 | 88%

target: Substance-P receptor (Meriones unguiculatus, UniProt Q5DUB1); assay: Displacement of [125I]-substance P from gerbil NK1 receptor expressed in HEK293 cell membranes incubated for 30 mins by liquid scintillation counting method; set-up: species or system Gerbillinae; conditions: not given
Sequence (Q5DUB1 whole entry): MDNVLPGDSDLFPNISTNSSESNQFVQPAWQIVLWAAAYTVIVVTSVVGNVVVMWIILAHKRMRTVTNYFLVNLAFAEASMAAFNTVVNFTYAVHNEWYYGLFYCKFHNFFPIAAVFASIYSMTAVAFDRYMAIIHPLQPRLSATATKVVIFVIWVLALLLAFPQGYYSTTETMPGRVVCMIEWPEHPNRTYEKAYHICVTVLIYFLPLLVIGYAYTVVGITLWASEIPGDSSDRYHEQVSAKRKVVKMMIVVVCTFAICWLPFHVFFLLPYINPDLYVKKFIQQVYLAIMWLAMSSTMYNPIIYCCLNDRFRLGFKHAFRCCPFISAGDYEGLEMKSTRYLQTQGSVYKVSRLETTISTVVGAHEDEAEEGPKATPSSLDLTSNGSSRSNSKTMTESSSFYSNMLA

Row | SMILES | IC50
67 | FC(F)(F)c1cc(COCC2(c3ccccc3)CCNCC2)cc(-c2cccc3ccccc23)c1 | 540 nM
68 | N#Cc1ccc(-c2cc(COCC3(c4ccccc4)CCN(Cc4ccccc4)CC3)cc(C(F)(F)F)c2)cc1 | 2 nM
69 | CC(C)N1CCC(COCc2cc(-c3ccc(C#N)cc3)cc(C(F)(F)F)c2)(c2ccccc2)CC1 | 0.39 nM
70 | FC(F)(F)c1cc(COCC2(c3ccccc3)CCNCC2)cc(-c2ccc3c(c2)OCO3)c1 | 7.1 nM
71 | FC(F)(F)c1ccc(-c2cc(COCC3(c4ccccc4)CCNCC3)cc(C(F)(F)F)c2)cc1 | 30 nM
72 | Cn1nnnc1-c1cc(COCC2(c3ccccc3)CCNCC2)cc(C(F)(F)F)c1 | 65 nM
73 | CCN1CCC(COCc2cc(-c3ccc(C#N)cc3)cc(C(F)(F)F)c2)(c2ccccc2)CC1 | 0.25 nM
74 | N#Cc1c(F)c(F)c(-c2cc(COCC3(c4ccccc4)CCNCC3)cc(C(F)(F)F)c2)c(F)c1F | 4.8 nM
75 | FC(F)(F)c1cc(COCC2(c3ccccc3)CCNCC2)cc(-n2nnnc2C(F)(F)F)c1 | 700 nM
76 | Cc1nnnn1-c1cc(COCC2(c3ccccc3)CCNCC2)cc(C(F)(F)F)c1 | 180 nM
77 | CN1CCC(COCc2cc(-c3ccc(C#N)cc3)cc(C(F)(F)F)c2)(c2ccccc2)CC1 | 0.29 nM

Other lines, results leading:

Row | IC50 | SMILES
78 | 25 nM | Nc1cccc(-c2cc(COCC3(c4ccccc4)CCNCC3)cc(C(F)(F)F)c2)c1
79 | 3.6 nM | Oc1ccc(-c2cc(COCC3(c4ccccc4)CCNCC3)cc(C(F)(F)F)c2)cc1
80 | 17 nM | COC(=O)c1ccc(-c2cc(COCC3(c4ccccc4)CCNCC3)cc(C(F)(F)F)c2)cc1
81 | 36 nM | Cn1nnc(-c2cc(COCC3(c4ccccc4)CCNCC3)cc(C(F)(F)F)c2)n1
82 | 1.1 nM | N#Cc1ccc(-c2cc(COCC3(c4ccccc4)CCNCC3)cc(C(F)(F)F)c2)cc1F
83 | 200 nM | FC(F)(F)c1cc(COCC2(c3ccccc3)CCNCC2)cc(-c2nnn[nH]2)c1
84 | 23 nM | Fc1ccccc1-c1cc(COCC2(c3ccccc3)CCNCC2)cc(C(F)(F)F)c1
85 | 3.8 nM | O=[N+]([O-])c1ccc(-c2cc(COCC3(c4ccccc4)CCNCC3)cc(C(F)(F)F)c2)cc1
86 | 68 nM | FC(F)(F)c1cc(COCC2(c3ccccc3)CCNCC2)cc(-c2ccccc2Cl)c1
87 | 5.2 nM | O=[N+]([O-])c1cccc(-c2cc(COCC3(c4ccccc4)CCNCC3)cc(C(F)(F)F)c2)c1
88 | 8.1 nM | N#Cc1ccc(-c2cc(COCC3(c4ccccc4)CCNCC3)cc(C(F)(F)F)c2)nc1
89 | 0.45 nM | N#Cc1ccc(-c2cc(COCC3(c4ccccc4)CCNCC3)cc(C(F)(F)F)c2)cc1
90 | 6.5 nM | O=[N+]([O-])c1ccccc1-c1cc(COCC2(c3ccccc3)CCNCC2)cc(C(F)(F)F)c1
91 | 1.1 nM | N#Cc1ccc(-c2cc(COCC3(c4ccccc4)CCNCC3)cc(C(F)(F)F)c2)cc1Cl
92 | 1.2 nM | Cc1cc(-c2cc(COCC3(c4ccccc4)CCNCC3)cc(C(F)(F)F)c2)ccc1C#N
